Holding throughout (format): cell-based
Assay [1] relates to phosphorylation of ERK (Thr202/Tyr204). Nature of the assay: ERK phosphorylation inhibitory effect by Cell ELISA in AsPC-1 cells (Test Example 2). The conditions noted are these: Homo sapiens; for IC50: ASPC1, overnight treatment, Cell ELISA, read-out: IC50 (ERK phosphorylation inhibition). Here is the method:
The ERK phosphorylation inhibitory effect of test compounds was evaluated by measuring phosphorylation of threonine 202 (Thr202) and tyrosine 204 (Tyr204) of ERK located downstream of the KRAS signal by Cell ELISA.
AsPC-1 cells were seeded on 384-well plates at 20 µL/well to give 2.0×10^4 cells per well. As for the cell culture conditions, RPMI 1640 medium containing 10% fetal bovine serum was used in the presence of 5% CO2 at 37° C.
The next day, the test compounds (10 points having final concentrations in the range of 10 μM to 0.3 nM), trametinib (MEK inhibitor) of a final concentration of […] as positive control and DMSO, which was the solvent for the test compounds, as negative control were diluted 500-fold with a fresh medium and were added at 20 μL per well. The cells were cultured overnight. After culturing, 30% glyoxal solution (40% glyoxal [from Nacalai Tesque]was diluted with PBS) was quickly added at 30 μL per well, and the plates were allowed to stand for 120 minutes at room temperature to thus immobilize the cells. Then, the plates were centrifuged to remove the supernatant (using a centrifugal dehydrator machine, the supernatant was removed by the same method hereinafter), and 0.10% Triton X-100-containing PBS was added at 20 μL per well. After allowing to stand for 10 minutes at room temperature, the supernatant was removed, and the same operation was further repeated. Next, 0.5% SDS-containing PBS was added at 20 μL per well, and after allowing to stand at room temperature for 30 minutes, the supernatant was removed. Subsequently, blocking solution (Intercept Blocking Buffer) was added at 20 μL per well, and the plates were allowed to stand for 1 hour at room temperature. The supernatant was removed, and an ERK (Thr202/Tyr204) phosphorylation antibody (Phospho-p44/42 MAPK (Erk 1/2) (Thr202/Tyr204) (D13.14.4E) XP Rabbit mAb; from Cell Signaling Technology) diluted 2,500-fold with blocking solution was added at 15 μL per well as a primary antibody. The plates were allowed to stand at 4° C. overnight.
The next day, the supernatant was removed. 0.05% Tween-20 (from Thermo Fisher Scientific)-containing PBS was added at 50 μL per well, and the supernatant was removed to thus wash each well. The washing was performed three times in total. After washing, Goat anti-Rabbit IgG H&L (IRDye 800CW) diluted 1,000-fold with blocking solution was added at 15 μL per well as a secondary antibody, and the plates were allowed to stand for 1 hour at room temperature. The supernatant was removed, and each well was washed three times with 0.05% Tween-20-containing PBS in the same manner as after the primary antibody reaction. After removing the supernatant, the plates were dried with air at room temperature for 3 hours or more, and the 800-nm fluorescent signals were measured with Aerius.
With the signaling value at the time of addition of DMSO taken as 100% and with the signaling value at the time of addition of […] trametinib taken as 0%, the 50% inhibitory concentration values (IC50) were calculated by Sigmoid-Emax nonlinear regression analysis. The calculated 50% inhibition represents the inhibition at the highest concentration evaluated (10 μM) for a compound that exceeds the concentration in the evaluation range.
(§1) In the tables presented below, Ex represents Example No. The IC50 of Ex. 13, Ex. 15, and Ex. 16 were calculated using the molecular weights as tetrahydrochloride, and the IC50 of Ex. 14 was calculated using the molecular weight as trihydrochloride.

The subject of assay [2] is human G12D mutant KRAS-positive pancreatic cancer line AsPC-1. Nature of the assay: Non-anchorage-dependent cell growth inhibitory effect, spheroid 3D culture (Test Example 3). Particulars: ASPC1, 144 h, AsPC-1 spheroid 3D culture, 6 days; for IC50: CellTiter Glo 2.0, read-out: IC50 (non-anchorage-dependent cell growth inhibition); for inhibition at 10 µM: read-out: cell growth inhibition at the highest concentration evaluated. Here is the method: The non-anchorage-dependent cell growth inhibitory effect of test compounds was evaluated by spheroid 3D cell culture.
AsPC-1 cells were seeded on low-cell-adhesive round bottom 384-well plates (PrimeSurface: from Sumitomo Bakelite) at 20 μL (or […])/well to give 5×10^2 cells per well. As for the cell culture conditions, RPMI 1640 medium containing 10% fetal bovine serum was used in the presence of 5% CO2 at 37° C.
The next day, the test compounds (10 points or 6 points having final concentrations in the range of 10 μM to 0.3 nM) and DMSO, which was the solvent for the test compounds, as a negative control were diluted 500-fold (or 100-fold) with a fresh medium and were added at 20 μL (or […]) per well. After culturing in the presence of 5% C02 at 37° C. for 6 days, CellTiter Glo 2.0 (from Promega) was added at 20 μL per well. After stirring with a plate mixer (from FINEPCR) at normal temperature for 1 hour, the luminescent signals were measured with ARVO X3 (from PerkinElmer).
With the signaling value in treatment with DMSO taken as 100% and with the signaling value in the medium alone without cells taken as 0%, the 50% inhibitory concentration values (IC50) were calculated by Sigmoid-Emax nonlinear regression analysis. The calculated 50% inhibition represents the inhibition at the highest concentration evaluated (10 μM) for a compound that exceeds the concentration in the evaluation range.
as §1
(Cellular ATP, detected with luciferase, serves as a proxy for viable cell number.)

For the next assay, the target named is T1, KRAS G12D (Homo sapiens, UniProt P01116, G12D).
T1 construct: host or cells: AsPC-1 (human pancreatic cancer line)
T1 sequence (P01116 1-188 isoform P01116-2 G12D): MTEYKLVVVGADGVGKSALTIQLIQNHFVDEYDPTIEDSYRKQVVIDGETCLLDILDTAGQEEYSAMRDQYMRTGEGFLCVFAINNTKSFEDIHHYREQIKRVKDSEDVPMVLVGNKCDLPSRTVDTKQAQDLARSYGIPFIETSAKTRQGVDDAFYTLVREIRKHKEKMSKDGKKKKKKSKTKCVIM
Nature of the assay: KRAS degradation activity by Cell ELISA in AsPC-1 cells (Test Example 1). The conditions noted are these: for Dmax: ASPC1, overnight treatment, read-out: Dmax (degradation rate at the concentration showing highest degradation); for Dmax / DC50: Cell ELISA; for DC50: overnight treatment, read-out: DC50 (50% degradation concentration of KRAS). The method, then: The KRAS degradation activity of test compounds was evaluated by measuring the expression levels of KRAS G12D by Cell ELISA.
AsPC-1 cells were seeded at 20 μL per well on 384-well plates (from Greiner bio-one) to give 2.0×10^4 cells per well. As for the cell culture conditions, RPMI 1640 (from Sigma-Aldrich) medium containing 10% fetal bovine serum (from Cytiva) was used in the presence of 5% CO2 at 37° C.
The next day, the test compounds (10 points having final concentrations in the range of 10 μM to 0.3 nM) and DMSO (from FUJIFILM Wako Pure Chemical Corporation), which was the solvent for the test compounds, as a negative control were diluted 500-fold with a fresh medium and were added at 20 μL per well. The cells were cultured overnight. The next day, the culture supernatant was removed, and 4% paraformaldehyde phosphate buffer (from FUJIFILM Wako Pure Chemical Corporation) was added at 20 μL per well. The plates were allowed to stand for 30 minutes at room temperature to thus immobilize the cells. Then, the supernatant was removed, and 0.1% Triton X-100 (from Amersham Biosciences)-containing Phosphate buffered saline (PBS; from FUJIFILM Wako Pure Chemical Corporation) was added at 20 μL per well. After allowing to stand for 10 minutes at room temperature, the supernatant was removed. PBS was added at 25 μL per well, and the supernatant was removed to thus wash each well. The washing was performed twice in total. Next, the supernatant was removed, and 0.5% sodium dodecyl sulfate (SDS; from Invitrogen)-containing PBS was added at 20 μL per well. After allowing to stand at room temperature for 10 minutes, the supernatant was removed by a centrifugal operation (using a centrifugal dehydrator machine, the supernatant was removed by the same method hereinafter). PBS was added at 25 μL per well, and the supernatant was removed to thus wash each well. The washing was performed twice in total. The supernatant was removed, and blocking solution (Intercept Blocking Buffer; from Li—COR Biosciences) was added at 20 μL per well. After allowing to stand for 30 minutes at room temperature, the supernatant was removed, and a solution obtained by diluting anti-β-actin antibody (Anti-beta Actin antibody [mAbcam 8226]-Loading Control; from abcam) 1,000-fold with blocking solution and a solution obtained by diluting anti-Ras (G12D Mutant Specific) antibody (Ras (G12D Mutant Specific) (D8H7) Rabbit mAb #14429; from Cell Signaling Technology) and anti-β-actin antibody (from abcam) 1,000-fold with blocking solution were respectively added to positive control wells and the other wells at 15 μL per well as a primary antibody. The plates were allowed to stand overnight at 4° C.
The next day, the supernatant was removed. PBS was added at 25 μL per well, and the supernatant was removed to thus wash each well. The washing was performed twice in total. The supernatant was removed, and a solution obtained by diluting Donkey anti-Mouse IgG H&L (IRDye 680RD) (from Li—COR Biosciences) and Goat anti-Rabbit IgG H&L (IRDye 800CW) (from Li—COR Biosciences) 1,000-fold with blocking solution was added at 15 μL per well as a secondary antibody. A solution obtained by diluting Donkey anti-Mouse IgG H&L (IRDye 680RD) (from Li—COR Biosciences) 1,000-fold with blocking solution was added to a positive control well as a secondary antibody. After allowing to stand for 1 hour at room temperature, the supernatant was removed. PBS was added at […], and the supernatant was removed to thus wash each well. The washing was performed twice in total. After removing the supernatant, the plates were dried with air at room temperature for 2 hours or more, and the 700 nm and 800 nm fluorescent signals were measured with Aerius (from Li—COR Biosciences). […]
In general terms: An ELISA detects its analyte on a solid surface through an enzyme-linked reagent.

Counter-ions that a name gives are not always drawn.

The term IC50 denotes the concentration at which inhibition is half-maximal.

With `Cc1c(F)cc2[nH]ncc2c1-c1c(C2CC2)cc2c(N3C[C@@H]4C[C@H]3CN4)nc(OC3CCOCC3)nc2c1OCc1ccc(C(=O)N2CCN(Cc3ccc4c(N5CCC(=O)NC5=O)nn(C)c4c3)C[C@@H]2C)cc1` (atropisomer, axis not shown; (M)) [Example 16, 1-(6-{[(3S)-4-{4-[({(7M)-6-cyclopropyl-4-[(1S,4S)-2,5-diazabicyclo[2.2.1]heptan-2-yl]-7-(6-fluoro-5-methyl-1H-indazol-4-yl)-2-[(oxan-4-yl)oxy]quinazolin-8-yl}oxy)methyl]benzoyl}-3-methylpiperazin-1-yl]methyl}-1-methyl-1H-indazol-3-yl)-1,3-diazinane-2,4-dione n hydrochloride], the IC50 in assay [1] came out at 158 nM. The IC50 in assay [2] stood at 73 nM. Also, on KRAS G12D, the Dmax was 86% and the DC50 is 71 nM.
The corresponding values for `Cc1c(F)cc2[nH]ncc2c1-c1c(C2CC2)cc2c(N3C[C@@H]4C[C@H]3CN4)nc(OC3CCOCC3)nc2c1OCc1ccc(C(=O)N2CCN(Cc3ccn4c(N5CCC(=O)NC5=O)cnc4c3)C[C@@H]2C)cc1` (atropisomer, axis not shown; (M)) [Example 34, 1-(7-{[(3S)-4-{4-[({(7M)-6-cyclopropyl-4-[(1S,4S)-2,5-diazabicyclo[2.2.1]heptan-2-yl]-7-(6-fluoro-5-methyl-1H-indazol-4-yl)-2-[(oxan-4-yl)oxy]quinazolin-8-yl}oxy)methyl]benzoyl}-3-methylpiperazin-1-yl]methyl}imidazo[1,2-a]pyridin-3-yl)-1,3-diazinane-2,4-dione] are 200 nM, 476 nM, 85% and 202 nM.
On to `Cc1c(F)cc2[nH]ncc2c1-c1c(C2CC2)cc2c(N3C[C@@H]4C[C@H]3CN4)nc(OC3CCOCC3)nc2c1OCc1ccc(C(=O)N2CCN(Cc3ccc4c(c3)C(=O)N(C3CCC(=O)NC3=O)C4=O)CC2)cc1` (stereo partly drawn) [Example 1], for which the IC50 in assay [1] is 3360 nM. For the same molecule, the inhibition at 10 µM in assay [2] stood at 37%. Besides, on KRAS G12D, the Dmax amounted to 59% and the DC50 amounted to 1950 nM.
For `Cc1c(F)cc2[nH]ncc2c1-c1c(C2CC2)cc2c(N3C[C@@H]4C[C@H]3CN4)nc(OC3CCOCC3)nc2c1OCc1ccc(C(=O)N2CCC(CN3CCN(c4cc5c(cc4F)C(=O)N(C4CCC(=O)NC4=O)C5=O)CC3)CC2)cc1` (stereo partly drawn) [Example 2], the IC50 in assay [1] was found to be 4770 nM. For the same molecule, the inhibition at 10 µM in assay [2] was determined as 55%. Further, at KRAS G12D, the Dmax was 59% and the DC50 was 4900 nM.
On to `Cc1c(F)cc2[nH]ncc2c1-c1c(C2CC2)cc2c(N3C[C@@H]4C[C@H]3CN4)nc(OC3CCOCC3)nc2c1OCc1ccc(C(=O)N2CCN(Cc3ccc4c(c3)oc(=O)n4C3CCC(=O)NC3=O)CC2)cc1` (stereo partly drawn) [Example 3], for which the IC50 in assay [1] is 94 nM. The IC50 in assay [2] stood at 120 nM. Moreover, at KRAS G12D, the Dmax was found to be 83% and the DC50 came out at 53 nM.
For `Cc1c(F)cc2[nH]ncc2c1-c1c(C2CC2)cc2c(N3C[C@@H]4C[C@H]3CN4)nc(OC3CCOCC3)nc2c1OCc1ccc(C(=O)N2C[C@H]3C[C@@H]2CN3Cc2ccc3c(c2)C(=O)N(C2CCC(=O)NC2=O)C3=O)cc1` (stereo partly drawn) [Example 4], the inhibition at 10 µM turned out to be 33% in assay [1] (ASPC1, at 10 μM, read-out: ERK phosphorylation inhibition at the highest concentration evaluated) and 22% in assay [2]. Moreover, the Dmax on KRAS G12D came out at 40%. The “degradation rate at the highest concentration evaluated (printed in DC50 column)” value on KRAS G12D (at 10 μM) came out at 40% at 10 μM.

Source of the values: patent publication US20250145631A1, “HETEROCYCLIC COMPOUND ACTING ON G12D MUTANT KRAS PROTEIN” (Astellas Pharma Inc., priority 2022, published 2025).
